The values that follow come from PMC5797143, “Epigenetic modulation of inflammation and synaptic plasticity promotes resilience against stress in mice” (Nature Communications, 2018).

Molecules are shown by their SMILES. pIC50, pKi: −log10 of the molar value.

Usually pIC50 stands for −log10 of the IC50, conventionally taken in molar units. For orientation: half-life means how long it takes for the measured level to halve. Low values mean rapid decline, high ones slow decline. One may read the pKi as the Ki on a negative log10 scale, so that one unit is a factor of ten.

The target of series [1] is T1, 5-HT3 (serotonin receptor) (Homo sapiens, UniProt P46098).
T1 construct: expressed in transfected cells; crude membrane fractions
T1 sequence (P46098 24-478): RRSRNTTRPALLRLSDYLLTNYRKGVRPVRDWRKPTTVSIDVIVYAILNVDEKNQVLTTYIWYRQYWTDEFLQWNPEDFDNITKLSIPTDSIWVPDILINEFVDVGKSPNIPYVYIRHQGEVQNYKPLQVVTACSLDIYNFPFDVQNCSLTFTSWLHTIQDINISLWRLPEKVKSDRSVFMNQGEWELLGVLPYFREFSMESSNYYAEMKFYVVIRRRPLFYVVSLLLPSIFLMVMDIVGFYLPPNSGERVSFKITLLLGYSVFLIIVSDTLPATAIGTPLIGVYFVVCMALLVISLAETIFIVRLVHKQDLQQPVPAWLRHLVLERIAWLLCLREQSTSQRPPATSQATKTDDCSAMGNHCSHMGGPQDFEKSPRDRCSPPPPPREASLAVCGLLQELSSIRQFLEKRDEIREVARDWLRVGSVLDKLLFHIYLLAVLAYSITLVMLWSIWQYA
As to the kind of experiment: Radioligand binding assay. The following applies: for Binding activity, 5-HT3 (percentage): 10 µM, HEK membrane fractions, quadruplicate. The protocol: (§1) Radioligand binding assays were performed as previously described. Briefly, crude membrane fractions prepared from a stable HEK cell line expressing recombinant receptors were mixed with a radiolabeled specific ligand and 10 µM of competitor compound (DHCA, Mal-gluc, or non-specific ligand). The percentage of radioligand binding was subsequently measured.

A further series deals with T2, M2 (muscarinic receptor) (Homo sapiens, UniProt P08172).
T2 construct: purchased NIMH Psychoactive Drug Screening Program (PDSP)
Nature of the series: Radioligand binding assay. The following applies: 10 µM; HEK membrane fractions; quadruplicate. The protocol:
as §1

The next series addresses T3, D3 (dopamine receptor) (Homo sapiens, UniProt P35462).
T3 construct: purchased NIMH Psychoactive Drug Screening Program (PDSP)
Nature of the series: Radioligand binding assay. The conditions noted are these: 10 µM; HEK membrane fractions; quadruplicate. The protocol:
as §1

Another series concerns the target T4, M3 (muscarinic receptor) (Homo sapiens, UniProt P20309).
T4 construct: purchased NIMH Psychoactive Drug Screening Program (PDSP)
Nature of the series: Radioligand binding assay. The following applies: 10 µM; HEK membrane fractions; quadruplicate. The protocol:
as §1

The target in series [2] is T5, 5-HT6 (serotonin receptor) (Homo sapiens, UniProt P50406).
T5 construct: purchased NIMH Psychoactive Drug Screening Program (PDSP)
Nature of the series: Radioligand binding assay. The following applies: 10 µM; HEK membrane fractions; quadruplicate. The protocol:
as §1

Series [3] deals with T6, Alpha1D (alpha adrenergic receptor) (Homo sapiens, UniProt P25100).
T6 construct: purchased NIMH Psychoactive Drug Screening Program (PDSP)
Nature of the series: Radioligand binding assay. The following applies: 10 µM; HEK membrane fractions; quadruplicate. The protocol: as §1

Series [4] deals with T7, Beta2 (beta adrenergic receptor) (Homo sapiens, UniProt P07550).
T7 construct: purchased NIMH Psychoactive Drug Screening Program (PDSP)
As to the kind of experiment: Radioligand binding assay. The following applies: 10 µM; HEK membrane fractions; quadruplicate. The protocol: as §1

Series [5] addresses T8, human Ether-à-go-go-related gene (hERG) (Homo sapiens, UniProt Q12809).
T8 construct: expressed in transfected cells; host or cells: CHO cells, stably transfected
Nature of the series: In vitro cardiotoxicity, hERG inhibition (IonWorks HT, CHO cells). The conditions noted are these: CHO cells stably transfected with hERG. Format: cell-based. The protocol: Cardiotoxicity was assessed using CHO cells stably transfected with the hERG using the IonWorks HT instrument (Molecular Devices Corporation), which automatically performs electrophysiology measurements in 48 single cells simultaneously in a specialized 384-well plate (PatchPlate)[42]. A single-cell suspension was added to the wells of a PatchPlate to form an electrical seal at the bottom and pre-compound currents were recorded. Various concentrations of Mal-gluc or DHCA were added to the cells in four replicates for 5 min and post-compound currents were then recorded. Post-compound currents are then expressed as a percentage of pre-compound currents and plotted against concentration for each compound and IC50 was calculated.
In general terms: The hERG channel carries a current that helps repolarise heart muscle cells.

Series [6] can be described thus: Plasma stability, human plasma. Type of series: in vitro ADME. The following applies: 37 °C. The protocol: Compound stability in mouse and human plasma and in mouse brain homogenate were conducted, [45]. Specifically, Mal-gluc or DHCA was incubated in duplicate with plasma at 37 °C and samples were taken at various time points and mixed with three volumes of ice-cold Stop Solution (methanol containing propranolol, diclofenac, or other internal standard). Samples were centrifuged to remove precipitated protein, and the supernatants were analyzed by LC/MS/MS to quantitate for remaining test compound. Data are converted to percentage remaining by dividing by the time zero concentration value. Data are fit to a first-order decay model to determine half-life. Plasma protein binding were conducted using both mouse and human plasma.

T6 sequence (P25100 whole entry): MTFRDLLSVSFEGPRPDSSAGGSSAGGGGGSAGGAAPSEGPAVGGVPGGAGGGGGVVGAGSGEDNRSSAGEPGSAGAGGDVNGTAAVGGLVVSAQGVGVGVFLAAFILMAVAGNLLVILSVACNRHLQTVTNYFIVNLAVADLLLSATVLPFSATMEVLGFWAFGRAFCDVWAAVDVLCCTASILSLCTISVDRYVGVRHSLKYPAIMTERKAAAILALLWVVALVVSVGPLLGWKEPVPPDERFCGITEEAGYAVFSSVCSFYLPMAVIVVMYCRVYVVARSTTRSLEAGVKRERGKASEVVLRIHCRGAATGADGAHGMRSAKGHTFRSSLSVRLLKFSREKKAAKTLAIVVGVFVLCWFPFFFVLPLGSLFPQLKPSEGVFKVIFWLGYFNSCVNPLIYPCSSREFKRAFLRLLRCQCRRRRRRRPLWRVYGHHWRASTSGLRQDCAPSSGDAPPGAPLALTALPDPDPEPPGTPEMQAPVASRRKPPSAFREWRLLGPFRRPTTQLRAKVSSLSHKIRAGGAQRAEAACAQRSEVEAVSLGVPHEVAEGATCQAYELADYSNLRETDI
T4 sequence (P20309 whole entry): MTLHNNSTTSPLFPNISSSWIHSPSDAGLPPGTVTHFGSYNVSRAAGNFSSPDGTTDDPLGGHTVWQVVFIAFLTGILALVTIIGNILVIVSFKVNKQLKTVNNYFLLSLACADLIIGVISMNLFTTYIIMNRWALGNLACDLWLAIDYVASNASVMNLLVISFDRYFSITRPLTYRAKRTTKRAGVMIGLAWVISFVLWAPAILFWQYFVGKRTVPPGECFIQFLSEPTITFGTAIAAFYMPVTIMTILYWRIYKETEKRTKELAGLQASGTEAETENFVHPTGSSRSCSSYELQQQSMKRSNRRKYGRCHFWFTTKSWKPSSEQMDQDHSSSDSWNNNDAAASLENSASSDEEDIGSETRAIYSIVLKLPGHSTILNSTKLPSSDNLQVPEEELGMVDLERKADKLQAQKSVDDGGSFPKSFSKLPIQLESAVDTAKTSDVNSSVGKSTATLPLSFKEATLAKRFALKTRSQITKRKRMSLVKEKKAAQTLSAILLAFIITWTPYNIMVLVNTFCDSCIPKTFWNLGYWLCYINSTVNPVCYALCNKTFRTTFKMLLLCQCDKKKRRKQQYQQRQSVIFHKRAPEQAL
T2 sequence (P08172 whole entry): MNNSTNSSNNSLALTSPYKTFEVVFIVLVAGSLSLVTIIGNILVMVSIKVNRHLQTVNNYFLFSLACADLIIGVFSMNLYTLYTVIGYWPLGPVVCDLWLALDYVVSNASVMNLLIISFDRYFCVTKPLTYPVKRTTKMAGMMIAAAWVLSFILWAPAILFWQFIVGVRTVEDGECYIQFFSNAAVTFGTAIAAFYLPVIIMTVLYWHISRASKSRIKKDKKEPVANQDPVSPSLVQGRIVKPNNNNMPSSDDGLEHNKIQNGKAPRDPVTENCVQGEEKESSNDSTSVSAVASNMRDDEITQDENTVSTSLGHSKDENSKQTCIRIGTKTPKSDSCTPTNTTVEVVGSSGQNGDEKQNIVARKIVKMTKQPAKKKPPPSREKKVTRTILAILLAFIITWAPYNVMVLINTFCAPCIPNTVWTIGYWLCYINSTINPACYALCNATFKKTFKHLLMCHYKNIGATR
T8 sequence (Q12809 whole entry): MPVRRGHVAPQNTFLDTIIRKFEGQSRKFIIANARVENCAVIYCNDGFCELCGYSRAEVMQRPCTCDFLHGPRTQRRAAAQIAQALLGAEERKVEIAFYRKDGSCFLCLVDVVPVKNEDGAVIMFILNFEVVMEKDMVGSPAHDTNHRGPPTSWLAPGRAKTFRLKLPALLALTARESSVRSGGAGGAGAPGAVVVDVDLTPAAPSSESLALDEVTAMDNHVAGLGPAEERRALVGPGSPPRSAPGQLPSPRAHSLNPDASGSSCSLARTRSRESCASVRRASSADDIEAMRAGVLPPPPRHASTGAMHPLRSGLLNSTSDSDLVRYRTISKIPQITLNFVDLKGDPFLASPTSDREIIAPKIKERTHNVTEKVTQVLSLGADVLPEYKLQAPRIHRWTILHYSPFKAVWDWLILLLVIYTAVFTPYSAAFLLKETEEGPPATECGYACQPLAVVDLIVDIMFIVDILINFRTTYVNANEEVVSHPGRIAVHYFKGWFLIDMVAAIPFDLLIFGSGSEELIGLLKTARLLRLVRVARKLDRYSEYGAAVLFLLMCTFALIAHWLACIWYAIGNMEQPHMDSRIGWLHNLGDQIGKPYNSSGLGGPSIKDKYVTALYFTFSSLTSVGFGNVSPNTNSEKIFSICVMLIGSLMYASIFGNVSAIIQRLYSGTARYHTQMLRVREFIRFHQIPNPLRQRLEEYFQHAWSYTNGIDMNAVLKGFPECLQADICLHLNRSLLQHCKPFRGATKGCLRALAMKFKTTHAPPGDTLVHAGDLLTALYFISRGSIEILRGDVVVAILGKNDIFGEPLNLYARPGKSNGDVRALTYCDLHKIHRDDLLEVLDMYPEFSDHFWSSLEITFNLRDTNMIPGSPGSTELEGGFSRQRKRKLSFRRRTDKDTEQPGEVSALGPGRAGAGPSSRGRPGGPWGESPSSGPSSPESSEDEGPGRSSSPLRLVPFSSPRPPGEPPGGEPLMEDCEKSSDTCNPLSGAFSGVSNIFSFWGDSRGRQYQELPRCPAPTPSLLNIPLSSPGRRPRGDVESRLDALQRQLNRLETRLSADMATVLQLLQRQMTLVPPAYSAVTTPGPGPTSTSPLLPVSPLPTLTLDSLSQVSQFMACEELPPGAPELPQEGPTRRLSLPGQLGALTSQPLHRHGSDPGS
T3 sequence (P35462 whole entry): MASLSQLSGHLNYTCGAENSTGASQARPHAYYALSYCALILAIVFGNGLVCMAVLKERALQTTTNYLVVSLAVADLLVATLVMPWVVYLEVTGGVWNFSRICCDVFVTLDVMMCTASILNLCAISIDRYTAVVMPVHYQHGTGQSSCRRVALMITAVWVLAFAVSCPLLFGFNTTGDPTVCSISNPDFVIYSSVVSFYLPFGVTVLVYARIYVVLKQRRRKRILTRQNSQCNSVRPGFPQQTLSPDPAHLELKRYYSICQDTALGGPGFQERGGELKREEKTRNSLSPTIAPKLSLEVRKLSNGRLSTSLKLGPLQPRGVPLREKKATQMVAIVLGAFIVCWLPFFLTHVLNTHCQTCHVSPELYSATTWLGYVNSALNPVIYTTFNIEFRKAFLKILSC
T5 sequence (P50406 whole entry): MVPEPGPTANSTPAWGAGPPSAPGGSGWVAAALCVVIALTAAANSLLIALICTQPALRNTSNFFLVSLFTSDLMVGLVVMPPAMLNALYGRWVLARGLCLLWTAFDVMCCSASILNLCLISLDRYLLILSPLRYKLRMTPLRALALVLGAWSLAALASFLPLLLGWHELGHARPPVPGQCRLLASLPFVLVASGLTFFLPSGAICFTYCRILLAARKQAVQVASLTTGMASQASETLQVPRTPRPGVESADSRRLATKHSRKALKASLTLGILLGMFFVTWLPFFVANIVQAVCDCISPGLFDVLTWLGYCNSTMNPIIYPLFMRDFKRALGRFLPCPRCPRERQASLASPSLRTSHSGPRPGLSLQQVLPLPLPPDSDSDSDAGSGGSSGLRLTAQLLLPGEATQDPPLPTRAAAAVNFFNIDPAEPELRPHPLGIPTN
T7 sequence (P07550 whole entry): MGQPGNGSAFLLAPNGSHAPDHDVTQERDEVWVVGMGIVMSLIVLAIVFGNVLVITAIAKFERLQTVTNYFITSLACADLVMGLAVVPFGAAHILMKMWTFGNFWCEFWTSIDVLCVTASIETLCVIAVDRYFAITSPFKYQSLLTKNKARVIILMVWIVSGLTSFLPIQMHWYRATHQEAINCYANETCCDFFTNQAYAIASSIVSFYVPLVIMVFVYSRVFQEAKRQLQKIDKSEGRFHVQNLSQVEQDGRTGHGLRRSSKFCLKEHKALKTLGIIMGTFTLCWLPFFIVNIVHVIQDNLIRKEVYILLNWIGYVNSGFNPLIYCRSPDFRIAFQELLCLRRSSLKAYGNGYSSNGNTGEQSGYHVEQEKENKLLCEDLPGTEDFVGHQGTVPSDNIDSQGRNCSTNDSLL

For `O=C(O)CCc1ccc(O)c(O)c1` [DHCA, 3(3,4-dihydroxy-phenyl) propionic acid], the “Binding activity, 5-HT3 (percentage)” value in series [1] is reported as −11.7%. Moreover, on M2 (muscarinic receptor), the “Binding activity, M2 (percentage)” value was −12.2%. The “Binding activity, D3 (percentage)” value on D3 (dopamine receptor) is −18.8%. In addition, at M3 (muscarinic receptor), the “Binding activity, M3 (percentage)” value was found to be 9.4%. Further, the “Binding activity, 5-HT6 (percentage)” value in series [2] is listed as 24.2%. In addition, the “Binding activity, Alpha1D (percentage)” value in series [3] is recorded as −15.4%. Further, in series [4], the “Binding activity, Beta2 (percentage)” value was −7.6%. This molecule also had a negative logarithm of the IC50 (pIC50) in [5] of less than 4.60. The half-life in [6] (human, plasma) came out at 1.11 h.
For the molecule `COc1cc(-c2[o+]c3cc(O)cc(O)c3cc2O[C@@H]2O[C@H](CO)[C@@H](O)[C@H](O)[C@H]2O)cc(OC)c1O` [Mal-gluc], the “Binding activity, 5-HT3 (percentage)” value in series [1] amounted to 74.1%. Moreover, the pKi in series [1] (secondary radioligand binding assay, read-out: calculated inhibitory constant (Ki), 5-HT3) was 5.37. Moreover, the “Binding activity, M2 (percentage)” value at M2 (muscarinic receptor) came to 5.2%. In addition, the “Binding activity, D3 (percentage)” value at D3 (dopamine receptor) is 7.2%. Further, the “Binding activity, M3 (percentage)” value at M3 (muscarinic receptor) amounted to 23.6%. In addition, the “Binding activity, 5-HT6 (percentage)” value in series [2] is listed as −18.5%. Further, the “Binding activity, Alpha1D (percentage)” value in series [3] was −1.3%. The “Binding activity, Beta2 (percentage)” value in series [4] is 1.9%. Moreover, the pIC50 in [5] is less than 4.60. Also, the “Plasma stability, Half-life (human plasma)” value in series [6] was 4.17 h.
